Converted amounts (≈) assume the structure as drawn.
What was measured:
[1] = test system: antisera generated to Immunogen I (hapten A-BTG); test: competitive microtiter plate assay (ELISA) for salvinorin A and salvinorin B; type: binding, sheep
[2] = in vivo; cited from earlier work
[3] = Conjugate I, calibrator 0.16 ng/ml
[4] = Conjugate I, calibrator 0.31 ng/ml
[5] = Conjugate I, calibrator 0.63 ng/ml
[6] = Conjugate I, calibrator 1.25 ng/ml
[7] = Conjugate I, calibrator 2.50 ng/ml
[8] = Conjugate I, calibrator 5.00 ng/ml
[9] = Conjugate I, calibrator 10.00 ng/ml
[10] = Conjugate II, calibrator 0.16 ng/ml
[11] = Conjugate II, calibrator 0.31 ng/ml
[12] = Conjugate II, calibrator 0.63 ng/ml
[13] = Conjugate II, calibrator 1.25 ng/ml
[14] = Conjugate II, calibrator 2.50 ng/ml
[15] = Conjugate II, calibrator 5.00 ng/ml
[16] = Conjugate II, calibrator 10.00 ng/ml

Compound	% CR (percentage cross-reactivity based on 100% specificity to salvinorin A) ([1]; Conjugate I)	IC50 (standard concentration which produces 50% B/Bo) ([1]; Conjugate I)	% B/B0 [1, 3]	% B/B0 [1, 4]	% B/B0 [1, 5]	% B/B0 [1, 6]	% B/B0 [1, 7]	% B/B0 [1, 8]	% B/B0 [1, 9]	% CR (percentage cross-reactivity based on 100% specificity to salvinorin A) ([1]; Conjugate II)	IC50 (standard concentration which produces 50% B/Bo) ([1]; Conjugate II)	% B/B0 [1, 10]	% B/B0 [1, 11]	% B/B0 [1, 12]	% B/B0 [1, 13]	% B/B0 [1, 14]	% B/B0 [1, 15]	% B/B0 [1, 16]	action of duration [2]
COC(=O)[C@@H]1C[C@H](OC(C)=O)C(=O)[C@H]2[C@@]1(C)CC[C@H]1C(=O)O[C@H](c3ccoc3)C[C@]21C [Salvinorin A]	100%	0.277 ng/mL (≈ 0.641 nM)	62%	48%	36%	26%	18%	13%	9%	100%	0.331 ng/mL (≈ 0.765 nM)	64%	51%	39%	30%	20%	14%	9%	10 to 15 min
COC(=O)C1CC(O)C(=O)C2C1(C)CCC1C(=O)OC(c3ccoc3)CC12C (stereo not shown) [Salvinorin B]	9.52%	2.909 ng/mL (≈ 7.45 nM)	84%	74%	70%	63%	50%	43%	33%	12.00%	2.758 ng/mL (≈ 7.06 nM)	85%	78%	71%	61%	51%	43%	33%	–

From patent publication US9222949B2, “Salvinorin immunoassay” (priority 2009, dated 2015)
